Broadly, the IC50 is the midpoint of a concentration-inhibition curve. The low end stands for higher potency, the high end for lower potency.

The values below come from US10875844B2, “Salicylate inhibitors of MELK and methods of use” (priority 2015, dated 2020).

In the experiment the target is T1, MELK (Homo sapiens, UniProt Q14680).
T1 construct: purchased Life Technologies
The experiment is described as follows: Z′-LYTE biochemical assay (Life Technologies), MELK inhibition. As to the method:
The invention also provides methods for inhibiting MELK, comprising contacting MELK with a compound of the invention in an amount effective to inhibit MELK. In certain embodiments, the method is conducted in vitro. In certain embodiments, the method is conducted in vivo. Inhibition of MELK can be determined by the Z′-LYTE® biochemical assay from Life Technologies (Life Technologies Z′-LYTE® Screening Protocol and Assay Conditions, June 2012, incorporated herein by reference).
The following compounds were made according to the general scheme shown in Example 1. IC50 against MELK was determined by Z′-LYTE® biochemical assay at 25 uM ATP concentration, and are measured in nM.

T1 sequence (Q14680 whole entry): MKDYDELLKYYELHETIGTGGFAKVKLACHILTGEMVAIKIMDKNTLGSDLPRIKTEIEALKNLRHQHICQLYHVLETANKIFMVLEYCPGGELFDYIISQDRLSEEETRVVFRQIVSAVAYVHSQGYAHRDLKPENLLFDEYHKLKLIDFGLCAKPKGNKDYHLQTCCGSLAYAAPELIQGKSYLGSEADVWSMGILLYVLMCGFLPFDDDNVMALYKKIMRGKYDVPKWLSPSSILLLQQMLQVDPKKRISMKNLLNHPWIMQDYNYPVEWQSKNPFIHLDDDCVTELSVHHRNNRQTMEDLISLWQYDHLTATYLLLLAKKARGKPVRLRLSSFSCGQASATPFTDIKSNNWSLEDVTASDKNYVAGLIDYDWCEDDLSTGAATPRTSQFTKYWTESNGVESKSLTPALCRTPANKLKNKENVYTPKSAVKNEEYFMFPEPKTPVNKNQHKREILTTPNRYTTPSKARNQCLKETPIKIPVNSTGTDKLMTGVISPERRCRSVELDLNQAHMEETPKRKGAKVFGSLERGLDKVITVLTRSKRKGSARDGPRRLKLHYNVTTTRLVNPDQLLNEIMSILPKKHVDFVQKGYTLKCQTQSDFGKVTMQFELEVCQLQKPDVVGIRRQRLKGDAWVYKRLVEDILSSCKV

Compound `O=C(Nc1ccccc1)c1ccc(-c2cn[nH]c2)cc1OCc1ccccc1` registered a concentration for half-maximal inhibition (IC50) of 1160 nM.

`O=C(Nc1ccc2c(c1)CCNCC2)c1ccc(-c2cn[nH]c2)cc1OC1Cc2ccccc2C1` had an IC50 of 1.05 nM. With `O=C(Nc1ccc2c(c1)CCNCC2)c1ccc(-c2cn[nH]c2)cc1OC1CCCCC1`, the IC50 was determined as 2.99 nM. For the compound `O=C(Nc1ccc2c(c1)CCNCC2)c1ccc(-c2cn[nH]c2)cc1OCC1CCCCC1`, the IC50 was 5.48 nM. Consider `O=C(Nc1ccc2c(c1)CCNCC2)c1ccc(-c2cn[nH]c2)cc1OCc1cccnc1`, for which the IC50 is 16.2 nM. In turn, `O=C(Nc1ccc2c(c1)CCNCC2)c1ccc(-c2cn[nH]c2)cc1OC(CN1CCCC1)c1ccccc1` (centres unmarked) yielded an IC50 of 213 nM. With `O=C(Nc1ccc2c(c1)CCNCC2)c1ccc(-c2cn[nH]c2)cc1OCCN1CCCC1` the figure was 75.1 nM; with `O=C(Nc1ccc2c(c1)CCNCC2)c1ccc(-c2cn[nH]c2)cc1OCCN1CCCC1=O`, 80.6 nM.

Compound `O=C(Nc1ccc2c(c1)CCNCC2)c1ccc(-c2cn[nH]c2)cc1OCCN1CCOCC1` returned an IC50 of 85.3 nM. As to `O=C(Nc1ccc2c(c1)CCNCC2)c1ccc(-c2cn[nH]c2)cc1O`, the IC50 amounted to 68.8 nM. With `O=C(Nc1ccc2c(c1)CCNCC2)c1ccc(-c2cn[nH]c2)cc1OCc1ccccc1` [Compound 02-102, 2-(benzyloxy)-4-(1H-pyrazol-4-yl)-N-(2,3,4,5-tetrahydro-1H-benzo[d]azepin-7-yl)benzamide] the figure was 2.17 nM; with `O=C(Nc1cccc2c1CCNCC2)c1ccc(-c2cn[nH]c2)cc1OCc1ccccc1` [Compound 02-103], 134 nM.

As for `O=C(Nc1ccc2c(c1)CCNCC2)c1ccc(-c2cc(Cl)c(O)c(Cl)c2)cc1OCc1ccccc1` [Compound 02-104, 3-(benzyloxy)-3′,5′-dichloro-4′-hydroxy-N-(2,3,4,5-tetrahydro-1H-benzo[d]azepin-7-yl)-[1,1′-biphenyl]-4-carboxamide], the IC50 was 1.92 nM.

For `CC(=O)N1CCc2ccc(NC(=O)c3ccc(-c4cn[nH]c4)cc3OCc3ccccc3)cc2CC1` [Compound 02-111, N-(3-acetyl-2,3,4,5-tetrahydro-1H-benzo[d]azepin-7-yl)-2-(benzyloxy)-4-(1H-pyrazol-4-yl)benzamide], 60.6 nM corresponded to half-maximal inhibition (IC50).
